Assay results published in patent publication US11690833B2, “Personal care compositions” (priority 2017, dated 2023).
Like-named read-outs stand apart in the source and are kept apart here.

Key:
oral bacteria = assay: Alamar Blue evaluation of antibacterial efficacy in the presence of the anionic surfactant SLS; type: cell-based, human saliva; details: 10 mg active + 20 mg of 30 weight % SLS solution + 5 ml oral bacteria solution, 37° C., 1 hour after addition of Alamar Blue dye, color change from blue to red indicates live bacteria
Method: In particular, the antibacterial efficacy of a CPC—ZnCl2 complex was compared to ZnCl2 and CPC individually, in the presence of SLS, as follows: human saliva was collected and diluted three times with deionized water, centrifuged, and decanted to yield a translucent solution of oral bacteria. […] A negative control was also prepared adding 20 mg (+/−0.9 mg) of the 30 weight % SLS aqueous solution and 5 ml of the prepared oral bacteria solution to deionized water instead of the antibacterial ingredient. The samples were then placed in a 37° C. oven and shaken at 100 RPM for 30 minutes. 200 μL of Alamar Blue dye was then added to each sample and placed back in the 37° C. oven and shaken at 100 RPM. The samples were then monitored every 30 minutes, with the results 1 hour after addition of the dye recorded in Table 1. Under an Alamar Blue assay, a color change from blue to red indicates the presence of live bacteria.

SMILES	Color of Solution (oral bacteria)	Color of Solution (oral bacteria; listed as CPC—ZnCl2 complex)	solubility in water (0.1 weight % solution, room temperature (23-24° C.))	solubility in water (0.5 weight % solution, room temperature (23-24° C.))	solubility in water (1.0 weight % solution, physiological temperature (36-37° C.))	solubility in water (1.0 weight % solution, room temperature (23-24° C.), after 24 hours of aging)	solubility in water (10 weight % solution, physiological temperature (36-37° C.))	solubility in water (10.0 weight % solution, room temperature (23-24° C.), after 24 hours of aging)	reduction in solubility compared to the CPC and ZnCl2 reactants separately (water)
CCCCCCCCCCCCCCCC[n+]1ccccc1 [CPC, cetylpyridinium chloride]	pink and Pink	–	–	–	–	–	–	–	–
CCCCCCCCCCCCCCCC[n+]1ccccc1.CCCCCCCCCCCCCCCC[n+]1ccccc1.[Cl][Zn-2]([Cl])([Cl])[Cl] [CPC-ZnCl2 complex]	Blue	blue	soluble	soluble	soluble	undissolved	not fully soluble	undissolved	≥ 25 fold
[Cl-].[Cl-].[Zn+2] [ZnCl2, zinc chloride]	Purple	–	–	–	–	–	–	–	–
